Data reported in ChEMBL document CHEMBL3885861, “Open TG-GATES”.

Species on record: Rattus norvegicus
Assay: Open TG-GATES - Regimen: Daily Repeat
Assay type: toxicity, organism-based, Sprague-Dawley
Design: regimen Daily Repeat, gender Male, age 6 weeks
Settings: in vivo, po, route gavage; for APTT / Bas / Eos / Fbg / Hb / Ht / Lym / MCH / MCHC / MCV / Mono / Neu / PT / Plat / RBC / Ret / WBC: tissue Blood; for KIDNEY_L / KIDNEY_R / KIDNEY_TOTAL: tissue Kidney; for LIVER: tissue Liver; for A/G / ALP / ALT / AST / BUN / CRE / Ca / Cl / DBIL / GLC / IP / K / LDH / Na / PL / RALB / TBIL / TC / TG / TP / gamma-GTP: tissue Plasma
[1] = 0 mg/kg, 72 h, dose level Control, time 3 day
[2] = 0 mg/kg, […], dose level Control, time 7 day
[3] = 0 mg/kg, […], dose level Control, time 14 day
[4] = 0 mg/kg, […], dose level Control, time 28 day
[5] = 15 mg/kg, 72 h, dose level Low, time 3 day
[6] = 15 mg/kg, […], dose level Low, time 7 day
[7] = 15 mg/kg, […], dose level Low, time 14 day
[8] = 15 mg/kg, […], dose level Low, time 28 day

CC(C)C(=O)Nc1ccc([N+](=O)[O-])c(C(F)(F)F)c1 [FLUTAMIDE]
TERMINAL_BW [1]: 224.3 g
APTT [1]: 19 s
Bas [1]: 0%
Eos [1]: 1%
Fbg [1]: 219.2 mg/dL
Hb [1]: 13.9 g/dL
Ht [1]: 41.8%
Lym [1]: 79%
MCH [1]: 21.5 pg
MCHC [1]: 33.3%
MCV [1]: 64.6 fL
Mono [1]: 3%
Neu [1]: 16%
PT [1]: 12.4 s
Plat [1]: 122.4 x10_4/uL
RBC [1]: 648 x10_4/ul
Ret [1]: 5.4%
WBC [1]: 82.7 x10_2/uL
KIDNEY_L [1]: 1 g
KIDNEY_R [1]: 1 g
KIDNEY_TOTAL [1]: 2 g
LIVER [1]: 10.4 g
A/G [1]: 1.5
ALP [1]: 1016 IU/L
ALT [1]: 41.6 IU/L
AST [1]: 72.8 IU/L
BUN [1]: 13.6 mg/dL
CRE [1]: 0.4 mg/dL
Ca [1]: 10.5 mg/dL
Cl [1]: 103.8 meq/L
DBIL [1]: 0.09 mg/dL
GLC [1]: 220.2 mg/dL
IP [1]: 7.1 mg/dL
K [1]: 4.1 meq/L
LDH [1]: 204.4 IU/L
Na [1]: 139.8 meq/L
PL [1]: 139 mg/dL
RALB [1]: 3.3 g/dL
TBIL [1]: 0.1 mg/dL
TC [1]: 76.2 mg/dL
TG [1]: 71.8 mg/dL
TP [1]: 5.5 g/dL
gamma-GTP [1]: 0.8 IU/L
TERMINAL_BW [2]: 253 g
TERMINAL_BW [3]: 303.3 g
TERMINAL_BW [4]: 371.7 g
APTT [2]: 19.5 s
Bas [2]: 0%
Eos [2]: 1%
Fbg [2]: 230.6 mg/dL
Hb [2]: 13.8 g/dL
Ht [2]: 40.6%
Lym [2]: 81.6%
MCH [2]: 21.1 pg
MCHC [2]: 33.9%
MCV [2]: 62.3 fL
Mono [2]: 2.4%
Neu [2]: 14.6%
PT [2]: 12.2 s
Plat [2]: 133.9 x10_4/uL
RBC [2]: 652.6 x10_4/ul
Ret [2]: 4.9%
WBC [2]: 141.3 x10_2/uL
APTT [3]: 20.7 s
Bas [3]: 0%
Eos [3]: 0.8%
Fbg [3]: 227 mg/dL
Hb [3]: 14.4 g/dL
Ht [3]: 42.3%
Lym [3]: 80.8%
MCH [3]: 20.8 pg
MCHC [3]: 34.1%
MCV [3]: 60.9 fL
Mono [3]: 2.4%
Neu [3]: 15.2%
PT [3]: 12.2 s
Plat [3]: 128 x10_4/uL
RBC [3]: 695 x10_4/ul
Ret [3]: 4.3%
WBC [3]: 110.8 x10_2/uL
APTT [4]: 19.6 s
Bas [4]: 0%
Eos [4]: 0.8%
Fbg [4]: 229.6 mg/dL
Hb [4]: 15.2 g/dL
Ht [4]: 43.5%
Lym [4]: 82.8%
MCH [4]: 19.9 pg
MCHC [4]: 35%
MCV [4]: 56.8 fL
Mono [4]: 2.2%
Neu [4]: 13.6%
PT [4]: 12.2 s
Plat [4]: 107.9 x10_4/uL
RBC [4]: 765.6 x10_4/ul
Ret [4]: 2.3%
WBC [4]: 122 x10_2/uL
KIDNEY_L [2]: 1.1 g
KIDNEY_R [2]: 1.1 g
KIDNEY_TOTAL [2]: 2.2 g
KIDNEY_L [3]: 1.2 g
KIDNEY_R [3]: 1.2 g
KIDNEY_TOTAL [3]: 2.5 g
KIDNEY_L [4]: 1.3 g
KIDNEY_R [4]: 1.3 g
KIDNEY_TOTAL [4]: 2.7 g
LIVER [2]: 11.7 g
LIVER [3]: 13.4 g
LIVER [4]: 15 g
A/G [2]: 1.6
ALP [2]: 743.8 IU/L
ALT [2]: 35.2 IU/L
AST [2]: 61.6 IU/L
BUN [2]: 15.6 mg/dL
CRE [2]: 0.4 mg/dL
Ca [2]: 10.7 mg/dL
Cl [2]: 103.4 meq/L
DBIL [2]: 0.09 mg/dL
GLC [2]: 214.8 mg/dL
IP [2]: 6.8 mg/dL
K [2]: 3.7 meq/L
LDH [2]: 167.2 IU/L
Na [2]: 141 meq/L
PL [2]: 140.4 mg/dL
RALB [2]: 3.6 g/dL
TBIL [2]: 0.2 mg/dL
TC [2]: 72.6 mg/dL
TG [2]: 82.6 mg/dL
TP [2]: 5.8 g/dL
gamma-GTP [2]: 1.2 IU/L
A/G [3]: 1.5
ALP [3]: 842.2 IU/L
ALT [3]: 35 IU/L
AST [3]: 61.8 IU/L
BUN [3]: 14.4 mg/dL
CRE [3]: 0.4 mg/dL
Ca [3]: 10.6 mg/dL
Cl [3]: 103.2 meq/L
DBIL [3]: 0.096 mg/dL
GLC [3]: 202.2 mg/dL
IP [3]: 6.8 mg/dL
K [3]: 3.8 meq/L
LDH [3]: 150 IU/L
Na [3]: 141.2 meq/L
PL [3]: 133.4 mg/dL
RALB [3]: 3.5 g/dL
TBIL [3]: 0.2 mg/dL
TC [3]: 67 mg/dL
TG [3]: 100.4 mg/dL
TP [3]: 5.8 g/dL
gamma-GTP [3]: 0.8 IU/L
A/G [4]: 1.4
ALP [4]: 578 IU/L
ALT [4]: 32 IU/L
AST [4]: 50 IU/L
BUN [4]: 15.8 mg/dL
CRE [4]: 0.5 mg/dL
Ca [4]: 10.3 mg/dL
Cl [4]: 104.6 meq/L
DBIL [4]: 0.072 mg/dL
GLC [4]: 226.2 mg/dL
IP [4]: 7 mg/dL
K [4]: 3.8 meq/L
LDH [4]: 121.6 IU/L
Na [4]: 140.8 meq/L
PL [4]: 130.2 mg/dL
RALB [4]: 3.5 g/dL
TBIL [4]: 0.1 mg/dL
TC [4]: 70.4 mg/dL
TG [4]: 60.8 mg/dL
TP [4]: 6 g/dL
gamma-GTP [4]: 0.8 IU/L
TERMINAL_BW [5]: 223.1 g
APTT [5]: 18.7 s
Bas [5]: 0%
Eos [5]: 1%
Fbg [5]: 224.2 mg/dL
Hb [5]: 14 g/dL
Ht [5]: 41.8%
Lym [5]: 75.2%
MCH [5]: 21.6 pg
MCHC [5]: 33.6%
MCV [5]: 64.4 fL
Mono [5]: 3.2%
Neu [5]: 19.4%
PT [5]: 12.3 s
Plat [5]: 119.4 x10_4/uL
RBC [5]: 649.4 x10_4/ul
Ret [5]: 5.7%
WBC [5]: 84.8 x10_2/uL
KIDNEY_L [5]: 1 g
KIDNEY_R [5]: 1 g
KIDNEY_TOTAL [5]: 1.9 g
LIVER [5]: 11.2 g
A/G [5]: 1.8
ALP [5]: 847 IU/L
ALT [5]: 40 IU/L
AST [5]: 66.8 IU/L
BUN [5]: 14.4 mg/dL
CRE [5]: 0.4 mg/dL
Ca [5]: 10.9 mg/dL
Cl [5]: 104.2 meq/L
DBIL [5]: 0.1 mg/dL
GLC [5]: 216.8 mg/dL
IP [5]: 7.1 mg/dL
K [5]: 3.9 meq/L
LDH [5]: 177.6 IU/L
Na [5]: 140.8 meq/L
PL [5]: 157.4 mg/dL
RALB [5]: 3.6 g/dL
TBIL [5]: 0.2 mg/dL
TC [5]: 86.6 mg/dL
TG [5]: 86.2 mg/dL
TP [5]: 5.6 g/dL
gamma-GTP [5]: 1.2 IU/L
TERMINAL_BW [6]: 248.2 g
TERMINAL_BW [7]: 294.4 g
TERMINAL_BW [8]: 340.6 g
APTT [6]: 19.1 s
Bas [6]: 0%
Eos [6]: 1%
Fbg [6]: 217.8 mg/dL
Hb [6]: 13.6 g/dL
Ht [6]: 40.3%
Lym [6]: 84.6%
MCH [6]: 20.8 pg
MCHC [6]: 33.7%
MCV [6]: 61.6 fL
Mono [6]: 2%
Neu [6]: 12.2%
PT [6]: 12.3 s
Plat [6]: 124.4 x10_4/uL
RBC [6]: 654.8 x10_4/ul
Ret [6]: 4.6%
WBC [6]: 149.8 x10_2/uL
APTT [7]: 20.6 s
Bas [7]: 0%
Eos [7]: 0.6%
Fbg [7]: 228.4 mg/dL
Hb [7]: 14.3 g/dL
Ht [7]: 41.8%
Lym [7]: 82.4%
MCH [7]: 20.9 pg
MCHC [7]: 34.2%
MCV [7]: 61.1 fL
Mono [7]: 2.4%
Neu [7]: 13.4%
PT [7]: 12.3 s
Plat [7]: 104.8 x10_4/uL
RBC [7]: 684.6 x10_4/ul
Ret [7]: 3.8%
WBC [7]: 112.5 x10_2/uL
APTT [8]: 19.6 s
Bas [8]: 0%
Eos [8]: 1.2%
Fbg [8]: 229.2 mg/dL
Hb [8]: 15.1 g/dL
Ht [8]: 42.7%
Lym [8]: 82%
MCH [8]: 20 pg
MCHC [8]: 35.4%
MCV [8]: 56.4 fL
Mono [8]: 2.2%
Neu [8]: 13.6%
PT [8]: 12.4 s
Plat [8]: 106.7 x10_4/uL
RBC [8]: 758.8 x10_4/ul
Ret [8]: 2.1%
WBC [8]: 99.2 x10_2/uL
KIDNEY_L [6]: 1.1 g
KIDNEY_R [6]: 1.1 g
KIDNEY_TOTAL [6]: 2.1 g
KIDNEY_L [7]: 1.2 g
KIDNEY_R [7]: 1.2 g
KIDNEY_TOTAL [7]: 2.3 g
KIDNEY_L [8]: 1.3 g
KIDNEY_R [8]: 1.2 g
KIDNEY_TOTAL [8]: 2.5 g
LIVER [6]: 12.1 g
LIVER [7]: 13.5 g
LIVER [8]: 13.8 g
A/G [6]: 1.5
ALP [6]: 979.6 IU/L
ALT [6]: 37.6 IU/L
AST [6]: 62.6 IU/L
BUN [6]: 15.8 mg/dL
CRE [6]: 0.5 mg/dL
Ca [6]: 10.7 mg/dL
Cl [6]: 104.2 meq/L
DBIL [6]: 0.088 mg/dL
GLC [6]: 214.2 mg/dL
IP [6]: 7.4 mg/dL
K [6]: 4.1 meq/L
LDH [6]: 195.6 IU/L
Na [6]: 140.6 meq/L
PL [6]: 145 mg/dL
RALB [6]: 3.5 g/dL
TBIL [6]: 0.1 mg/dL
TC [6]: 74.2 mg/dL
TG [6]: 83.2 mg/dL
TP [6]: 5.8 g/dL
gamma-GTP [6]: 1.2 IU/L
A/G [7]: 1.5
ALP [7]: 728 IU/L
ALT [7]: 33.4 IU/L
AST [7]: 57.2 IU/L
BUN [7]: 12.8 mg/dL
CRE [7]: 0.5 mg/dL
Ca [7]: 10.7 mg/dL
Cl [7]: 104 meq/L
DBIL [7]: 0.09 mg/dL
GLC [7]: 200.4 mg/dL
IP [7]: 6.3 mg/dL
K [7]: 3.9 meq/L
LDH [7]: 137.8 IU/L
Na [7]: 141.2 meq/L
PL [7]: 149 mg/dL
RALB [7]: 3.4 g/dL
TBIL [7]: 0.1 mg/dL
TC [7]: 77.6 mg/dL
TG [7]: 96.4 mg/dL
TP [7]: 5.7 g/dL
gamma-GTP [7]: 0.6 IU/L
A/G [8]: 1.4
ALP [8]: 460.2 IU/L
ALT [8]: 34 IU/L
AST [8]: 54.4 IU/L
BUN [8]: 16.8 mg/dL
CRE [8]: 0.5 mg/dL
Ca [8]: 10.3 mg/dL
Cl [8]: 103.6 meq/L
DBIL [8]: 0.07 mg/dL
GLC [8]: 226.2 mg/dL
IP [8]: 6.1 mg/dL
K [8]: 3.4 meq/L
LDH [8]: 126.8 IU/L
Na [8]: 141.4 meq/L
PL [8]: 147 mg/dL
RALB [8]: 3.6 g/dL
TBIL [8]: 0.1 mg/dL
TC [8]: 83.4 mg/dL
TG [8]: 51.2 mg/dL
TP [8]: 6.2 g/dL
gamma-GTP [8]: 0.4 IU/L
